pIC50: −log10 of the molar value. Peptide text beside a SMILES is read from it.
What was measured:
Assay in all cases: biochemical
Type in all cases: binding
HLA-DRB1*0404 = HLA-DRB1*0404 (Homo sapiens, UniProt P01903+P01911, A100R/A169T/F76Y/I96L/K127E/L162R/M171V/N62H/P40V/Q125Y/R42H/S133A/S149N/S66Y/V209L/W38E)
HLA-DRB5*0101 = HLA-DRB5*0101 (Homo sapiens, UniProt P01903+Q30154)
HLA-DRB1*0101 = HLA-DRB1*0101 (Homo sapiens, UniProt P01903+P01911, A100R/D57E/F55L/F60I/F76Y/I96L/L162R/M171V/P40L/Q125E/R42F/V115G/Y59C)
HLA-DRB1*0301 = HLA-DRB1*0301 (Homo sapiens, UniProt P01903+P01911, A100K/A102G/A103R/A169T/F55Y/I96L/K41T/L162R/M171V/P40S/Q125H/Q178H/Q39Y/R42S/S66N/T106N/T262R/W38E/Y61H)
HLA-DRB1*0401 = HLA-DRB1*0401 (Homo sapiens, UniProt P01903+P01911, A100K/A169T/F76Y/I96L/K127E/L162R/M171V/N62H/P40V/Q125Y/R42H/S133A/S149N/S66Y/V115G/V209L/W38E)
HLA-DRB1*0405 = HLA-DRB1*0405 (Homo sapiens, UniProt P01903+P01911, A100R/A169T/D86S/F76Y/I96L/K127E/L162R/M171V/N62H/P40V/Q125Y/R42H/S133A/S149N/S66Y/V115G/V209L/W38E)
HLA-DRB1*0701 = HLA-DRB1*0701 (Homo sapiens, UniProt P01903+P01911, A100R/A102G/A103Q/D57E/D86V/E43K/F76Y/K127E/L162R/M171V/P40G/Q125H/Q99D/R33Q/R42Y/R54Q/S133A/S66F/T210M/V115G/Y107V/Y59L/Y89S)
HLA-DRB1*0802 = HLA-DRB1*0802 (Homo sapiens, UniProt P01903+P01911, A100R/A103L/A169T/F76Y/H45Y/I96F/K41T/L162R/M171V/P40S/Q125H/Q178H/Q39Y/Q99D/R218S/R42G/S66Y/V115G/W38E)
HLA-DRB1*0901 = HLA-DRB1*0901 (Homo sapiens, UniProt P01903+P01911, A100R/A103E/D57H/D86V/F55Y/F60I/F76Y/I96F/K127E/L162R/M171V/P40D/Q125H/Q99R/R33Q/R42F/S133A/S66N/T210M/V115G/W38K/Y107V/Y59G/Y89S)
HLA-DRB1*1101 = HLA-DRB1*1101 (Homo sapiens, UniProt P01903+P01911, A100R/A169T/A87E/I96F/K41T/L162R/M171V/P40S/Q125H/Q178H/Q39Y/Q99D/R42S/S66Y/T262R/V115G/W38E)
HLA-DRB1*1302 = HLA-DRB1*1302 (Homo sapiens, UniProt P01903+P01911, A100E/A169T/K41T/L162R/M171V/P40S/Q125H/Q178H/Q39Y/Q99D/R42S/S66N/T262R/V115G/W38E/Y61H)
HLA-DRB1*1501 = HLA-DRB1*1501 (Homo sapiens, UniProt P01903+P01911)
HLA-DRB4*0101 = HLA-DRB4*0101 (Homo sapiens, UniProt P01903+P13762, G164S)

Chain of HLA-DRB1*1302 (P01903 26-254 limits assumed, other chains not shown): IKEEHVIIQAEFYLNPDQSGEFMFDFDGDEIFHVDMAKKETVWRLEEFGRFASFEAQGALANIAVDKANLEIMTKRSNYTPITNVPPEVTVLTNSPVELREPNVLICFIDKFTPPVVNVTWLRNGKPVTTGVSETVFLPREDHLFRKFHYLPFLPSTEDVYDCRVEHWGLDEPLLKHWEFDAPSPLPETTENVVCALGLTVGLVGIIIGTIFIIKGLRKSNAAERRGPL
Chain of HLA-DRB1*0301 (P01903 26-254, other chains not shown): as the sequence (P01903 26-254 limits assumed, other chains not shown) above
Chain of HLA-DRB1*1101 (P01903 26-254 limits assumed, other chains not shown): as above

| SMILES | pIC50 (HLA-DRB1*0404) | pIC50 (HLA-DRB5*0101) | pIC50 (HLA-DRB1*0101) | pIC50 (HLA-DRB1*0301) | pIC50 (HLA-DRB1*0401) | pIC50 (HLA-DRB1*0405) | pIC50 (HLA-DRB1*0701) | pIC50 (HLA-DRB1*0802) | pIC50 (HLA-DRB1*0901) | pIC50 (HLA-DRB1*1101) | pIC50 (HLA-DRB1*1302) | pIC50 (HLA-DRB1*1501) | pIC50 (HLA-DRB4*0101) |
| --- | --- | --- | --- | --- | --- | --- | --- | --- | --- | --- | --- | --- | --- |
| CC[C@H](C)[C@H](NC(=O)[C@H](CO)NC(=O)[C@H](CC(N)=O)NC(=O)[C@@H](N)CCC(N)=O)C(=O)N[C@H](C(=O)N[C@H](C(=O)N[C@@H](CCC(=O)O)C(=O)N[C@@H](CCCNC(=N)N)C(=O)N[C@@H](CCSC)C(=O)N[C@H](C(=O)N[C@@H](CC(C)C)C(=O)N[C@@H](CO)C(=O)N[C@@H](C)C(=O)N[C@@H](Cc1ccccc1)C(=O)N[C@@H](CC(=O)O)C(=O)O)C(C)C)[C@@H](C)CC)[C@@H](C)O [NP.58] | 6.73 | < 5.00 | – | – | – | – | – | – | – | – | – | – | – |
| CC[C@H](C)[C@H](N)C(=O)NCC(=O)N[C@@H](CCCNC(=N)N)C(=O)N[C@@H](Cc1ccccc1)C(=O)N[C@@H](Cc1ccc(O)cc1)C(=O)N[C@H](C(=O)N[C@@H](CCC(N)=O)C(=O)N[C@@H](CCSC)C(=O)N[C@@H](CS)C(=O)N[C@H](C(=O)N[C@@H](CCC(=O)O)C(=O)N[C@@H](CC(C)C)C(=O)N[C@@H](CCCCN)C(=O)N[C@@H](CC(C)C)C(=O)N[C@@H](CO)C(=O)N[C@@H](CC(=O)O)C(=O)N[C@@H](Cc1ccc(O)cc1)C(=O)N[C@@H](CCC(=O)O)C(=O)NCC(=O)O)[C@@H](C)O)[C@@H](C)CC [NP.36] (H-IGRFYIQMCTELKLSDYEG-OH) | 6.94 | 7.55 | 7.51 | 6.54 | 7.28 | 7.54 | 6.35 | 6.31 | 6.71 | 6.63 | 5.57 | 7.64 | 6.68 |
| CC[C@H](C)[C@H](NC(=O)[C@H](C)NC(=O)CNC(=O)[C@@H](N)CCC(=O)O)C(=O)N[C@H](C(=O)NCC(=O)N[C@@H](CCC(=O)O)C(=O)N[C@H](C(=O)N[C@@H](CO)C(=O)N1CCC[C@H]1C(=O)N[C@@H](CC(C)C)C(=O)N1CCC[C@H]1C(=O)N[C@@H](CO)C(=O)N[C@@H](CC(C)C)C(=O)N1CCC[C@H]1C(=O)NCC(=O)N[C@@H](Cc1c[nH]cn1)C(=O)N[C@H](C(=O)N[C@@H](CC(=O)O)C(=O)O)[C@@H](C)O)[C@@H](C)CC)C(C)C [NS1.153] | 8.22 | 5.94 | 7.19 | 5.08 | 7.85 | 7.01 | < 5.00 | 6.64 | 5.20 | 7.06 | 5.75 | 8.15 | 6.88 |
| CC[C@H](C)[C@H](NC(=O)CNC(=O)[C@@H](NC(=O)[C@@H](NC(=O)[C@H](CO)NC(=O)[C@H](C)NC(=O)[C@H](C)NC(=O)[C@@H](NC(=O)[C@@H](NC(=O)[C@H](CC(C)C)NC(=O)[C@@H]1CCCN1C(=O)[C@@H](N)CC(=O)O)C(C)C)C(C)C)[C@@H](C)CC)[C@@H](C)CC)C(=O)N[C@@H](CC(C)C)C(=O)N[C@@H](Cc1c[nH]cn1)C(=O)N[C@@H](CC(C)C)C(=O)O [M2.24] | – | < 5.00 | – | < 5.00 | – | – | – | – | – | – | – | – | – |
| CSCC[C@H](NC(=O)[C@H](Cc1c[nH]c2ccccc12)NC(=O)[C@@H](NC(=O)[C@H](CC(C)C)NC(=O)[C@H](CCC(N)=O)NC(=O)[C@H](CO)NC(=O)[C@@H](N)CCCCN)C(C)C)C(=O)N[C@@H](C)C(=O)N[C@@H](CS)C(=O)N[C@@H](Cc1c[nH]cn1)C(=O)N[C@@H](CO)C(=O)N[C@@H](C)C(=O)N[C@@H](C)C(=O)N[C@@H](Cc1ccccc1)C(=O)N[C@@H](CCC(=O)O)C(=O)O [NP.325] | 7.47 | – | 7.46 | – | – | – | – | – | – | – | < 5.00 | – | – |
| CC[C@H](C)[C@H](NC(=O)[C@H](CCC(N)=O)NC(=O)[C@H](CCC(=O)O)NC(=O)[C@@H](N)Cc1ccccc1)C(=O)N[C@H](C(=O)N[C@@H](Cc1ccccc1)C(=O)N[C@@H](CCSC)C(=O)N[C@@H](CCC(N)=O)C(=O)N[C@@H](C)C(=O)N[C@@H](CC(C)C)C(=O)N[C@@H](CCC(N)=O)C(=O)N[C@@H](CC(C)C)C(=O)N[C@@H](CC(C)C)C(=O)N[C@@H](CC(C)C)C(=O)N[C@@H](CCC(=O)O)C(=O)O)[C@@H](C)O [NS2.94] | – | – | – | – | – | – | – | – | – | – | – | 8.00 | – |
| CC[C@H](C)[C@H](NC(=O)[C@H](CCCCN)NC(=O)[C@H](CC(N)=O)NC(=O)[C@H](C)NC(=O)[C@H](CCCCN)NC(=O)[C@H](CCC(=O)O)NC(=O)[C@H](CC(C)C)NC(=O)[C@H](Cc1ccc(O)cc1)NC(=O)[C@H](Cc1ccc(O)cc1)NC(=O)[C@@H](NC(=O)[C@H](Cc1c[nH]cn1)NC(=O)[C@@H](NC(=O)[C@H](CCC(=O)O)NC(=O)[C@H](CCCNC(=N)N)NC(=O)[C@@H](N)CCCNC(=N)N)C(C)C)[C@@H](C)CC)C(=O)O [PA.124] | – | – | – | < 5.00 | – | – | – | – | – | – | – | 8.40 | – |

From PMC3364000 (Vaccine, 2009)
